Drawing on paper PMC10175918 (Communications Biology, 2023), this text covers activation for 5 molecules.

What all share (assay): TGFα-shedding assay-based GPCR screening with chimeric Gα subunit proteins
Holding throughout (format): cell-based

Assay [1] concerns the target T1, 348 GPCRs (Homo sapiens, UniProt P32238).
T1 sequence (P32238 1-428): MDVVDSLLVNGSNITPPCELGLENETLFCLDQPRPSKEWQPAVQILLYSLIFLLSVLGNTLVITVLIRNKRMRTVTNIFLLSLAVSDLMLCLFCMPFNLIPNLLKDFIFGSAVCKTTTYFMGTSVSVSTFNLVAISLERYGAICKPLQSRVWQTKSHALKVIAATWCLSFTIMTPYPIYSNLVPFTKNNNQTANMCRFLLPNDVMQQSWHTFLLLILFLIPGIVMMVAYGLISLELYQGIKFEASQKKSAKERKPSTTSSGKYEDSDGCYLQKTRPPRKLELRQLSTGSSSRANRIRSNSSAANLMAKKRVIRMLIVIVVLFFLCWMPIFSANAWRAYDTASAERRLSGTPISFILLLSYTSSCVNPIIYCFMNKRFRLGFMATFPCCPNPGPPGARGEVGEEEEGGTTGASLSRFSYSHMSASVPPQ
Conditions: 10µM, Favipiravir 100μM.

Assay [2] has as its target T2, 348 GPCRs (Homo sapiens, UniProt P34998).
T2 construct: expressed in transfected cells; host or cells: HEK293A
T2 sequence (P34998 24-415): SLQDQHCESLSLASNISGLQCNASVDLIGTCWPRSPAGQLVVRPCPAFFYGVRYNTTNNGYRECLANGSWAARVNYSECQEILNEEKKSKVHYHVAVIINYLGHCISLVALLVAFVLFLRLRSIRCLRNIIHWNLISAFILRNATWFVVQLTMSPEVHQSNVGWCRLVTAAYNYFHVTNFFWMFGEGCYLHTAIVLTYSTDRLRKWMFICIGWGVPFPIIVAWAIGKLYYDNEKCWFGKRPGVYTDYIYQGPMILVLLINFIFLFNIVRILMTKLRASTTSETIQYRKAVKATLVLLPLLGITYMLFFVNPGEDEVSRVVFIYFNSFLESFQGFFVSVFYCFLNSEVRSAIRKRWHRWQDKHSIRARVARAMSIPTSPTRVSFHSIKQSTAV

Assay [3] concerns the target T3, 348 GPCRs (Homo sapiens, UniProt Q8IZF4).
T3 construct: expressed in transfected cells; host or cells: HEK293A
T3 sequence (Q8IZF4 22-528): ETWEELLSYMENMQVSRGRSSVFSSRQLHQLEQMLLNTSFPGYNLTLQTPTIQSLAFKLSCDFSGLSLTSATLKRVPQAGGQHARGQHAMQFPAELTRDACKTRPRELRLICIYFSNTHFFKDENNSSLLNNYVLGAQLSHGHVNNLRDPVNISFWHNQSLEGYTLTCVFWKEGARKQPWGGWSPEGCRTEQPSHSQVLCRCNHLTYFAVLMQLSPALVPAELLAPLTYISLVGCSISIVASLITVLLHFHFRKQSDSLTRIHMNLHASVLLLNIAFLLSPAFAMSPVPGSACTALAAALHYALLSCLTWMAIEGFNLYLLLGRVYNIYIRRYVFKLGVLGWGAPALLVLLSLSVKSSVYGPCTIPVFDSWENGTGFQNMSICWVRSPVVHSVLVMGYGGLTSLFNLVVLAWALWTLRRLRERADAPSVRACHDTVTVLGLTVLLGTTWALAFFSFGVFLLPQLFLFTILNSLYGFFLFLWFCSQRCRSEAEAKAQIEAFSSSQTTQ

The target of assay [4] is T4, 348 GPCRs (Homo sapiens, UniProt P48039).
T4 construct: expressed in transfected cells; host or cells: HEK293A
T4 sequence (P48039 whole entry): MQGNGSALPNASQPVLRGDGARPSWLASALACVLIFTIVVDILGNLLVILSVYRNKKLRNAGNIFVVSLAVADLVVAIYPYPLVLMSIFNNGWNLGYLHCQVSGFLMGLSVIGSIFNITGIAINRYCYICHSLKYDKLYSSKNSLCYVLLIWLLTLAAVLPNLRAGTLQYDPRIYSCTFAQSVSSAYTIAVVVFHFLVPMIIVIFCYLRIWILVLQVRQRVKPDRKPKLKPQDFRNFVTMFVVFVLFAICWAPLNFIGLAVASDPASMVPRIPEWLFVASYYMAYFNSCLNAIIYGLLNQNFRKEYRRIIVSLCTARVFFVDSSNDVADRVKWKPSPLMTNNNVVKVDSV
The settings on record: 10µM, Favipiravir 100μM.

Assay [5] addresses T5, 348 GPCRs (Homo sapiens, UniProt Q9UKP6).
T5 construct: expressed in transfected cells; host or cells: HEK293A
T5 sequence (Q9UKP6 1-389): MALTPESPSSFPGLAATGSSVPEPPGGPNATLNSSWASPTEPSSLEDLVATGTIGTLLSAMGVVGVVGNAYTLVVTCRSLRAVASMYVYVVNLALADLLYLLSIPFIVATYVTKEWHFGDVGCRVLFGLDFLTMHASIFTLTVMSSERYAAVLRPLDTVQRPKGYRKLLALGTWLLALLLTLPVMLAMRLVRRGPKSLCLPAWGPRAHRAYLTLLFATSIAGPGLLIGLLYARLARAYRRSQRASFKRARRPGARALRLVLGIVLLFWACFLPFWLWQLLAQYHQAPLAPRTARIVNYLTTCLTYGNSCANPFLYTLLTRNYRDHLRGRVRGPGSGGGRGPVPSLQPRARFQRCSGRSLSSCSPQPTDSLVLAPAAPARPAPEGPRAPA
The settings on record: 10µM, Favipiravir 100μM.

[6] abbreviates: CCKAR (cholecystokinin A receptor), read-out: % GPCR activation compared to TPA.
[7] abbreviates: GPCR CRHR1 (corticotropin releasing hormone receptor 1), read-out: % GPCR activation compared to TPA.
[8] abbreviates: GPCR GPR114 (G-protein-coupled receptor 114 (ADGRG5)), read-out: % GPCR activation compared to TPA.
[9] abbreviates: MT1R (melatonin receptor type 1A), read-out: % GPCR activation compared to TPA.
Setting [10] is: UTS2R (urotensin 2 receptor), read-out: % GPCR activation compared to TPA.
[11] abbreviates: read-out: % GPCR activation compared to TPA, CCKAR (cholecystokinin A receptor).
The mark [12] stands for this setting: read-out: % GPCR activation compared to TPA, GPCR CRHR1 (corticotropin releasing hormone receptor 1).
The mark [13] stands for this setting: read-out: % GPCR activation compared to TPA, GPCR GPR114 (G-protein-coupled receptor 114 (ADGRG5)).
Setting [14] is: read-out: % GPCR activation compared to TPA, MT1R (melatonin receptor type 1A).
Setting [15] is: read-out: % GPCR activation compared to TPA, UTS2R (urotensin 2 receptor).

Read-outs that look alike come from different tables or passages of the source.

For `CC(C)C(=O)OC[C@H]1O[C@@H](n2ccc(NO)nc2=O)[C@H](O)[C@@H]1O` [molnupiravir], the activation at 100 µM in assay [1] (setting [6]) turned out to be 2.71%. Besides, the activation at 10 µM in assay [2] (setting [7]) is 1.11%; in assay [3] (setting [8]) it was -2.86%; in assay [4] (setting [9]) it was -4.07%; in assay [5] (setting [10]), -8.44%.
With `CC(C)OC(=O)[C@H](C)N[P@](=O)(OC[C@H]1O[C@@H](n2ccc(=O)[nH]c2=O)[C@](C)(F)[C@@H]1O)Oc1ccccc1` [sofosbuvir], in assay [1] (setting [11]), the activation at 100 µM was -1.34%. In addition, the activation at 10 µM was 1.15% in assay [2] (setting [12]), 0.492% in assay [3] (setting [13]), -4.49% in assay [4] (setting [14]) and -2.85% in assay [5] (setting [15]).
On to `N#C[C@@]1(c2ccc3c(N)ncnn23)O[C@H](CO)[C@@H](O)[C@H]1O` [GS441524], for which the activation at 100 µM in assay [1] (setting [6]) was -2.84%. Also, the activation at 10 µM in assay [2] (setting [7]) was 0.467%; in assay [3] (setting [8]), -2.76%; in assay [4] (setting [9]) it was 0.391%; in assay [5] (setting [10]), -11.4%.
For `NC(=O)c1nc(F)cnc1O` [favipiravir, 6-fluoro-3-hydroxy-2-pyrazinecarboxamide], the activation at 100 µM in assay [1] (setting [6]) is -0.523%; in assay [2] (GPCR CRHR1 (corticotropin releasing hormone receptor 1), 100μM, read-out: % GPCR activation compared to TPA) it was -0.37%; in assay [3] (GPCR GPR114 (G-protein-coupled receptor 114 (ADGRG5)), 100μM, read-out: % GPCR activation compared to TPA), -2.55%. Besides, the activation at 10 µM was -1.27% in assay [4] (setting [9]) and -4.11% in assay [5] (setting [10]).
As to `CCC(CC)COC(=O)[C@H](C)N[P@](=O)(OC[C@H]1O[C@@](C#N)(c2ccc3c(N)ncnn23)[C@H](O)[C@@H]1O)Oc1ccccc1` [remdesivir], the activation at 100 µM in assay [1] (setting [11]) worked out at 1.15%. Further, the activation at 10 µM in assay [2] (setting [12]) was 2.05%; in assay [3] (setting [13]) it was -1.51%; in assay [4] (setting [14]) it was 0.542%; in assay [5] (setting [15]) it was 46.9%.
